Numbered stars: 1 amine (or outer) side, 2 acyl side, 3 side chain; on linkers, the order of the positions; unused ones are H or OH. Square brackets hold non-standard residues; d marks the D form. Peptide text beside a SMILES is read from it. * marks the point of attachment. 5FAM = O=C1OC2(c3ccc(O)cc3Oc3cc(O)ccc32)c2ccc(C(=O)*)cc21; X1 = CO[C@H]1CC(N[*:1])(C(=O)[*:2])C[C@@H]1OC; αMeL = CC(C)C[C@](C)(N)C(=O)O; Ac5c = NC1(C(=O)O)CCCC1
Assays:
HeLa cells = test: Cellular uptake of CF-labeled peptides into HeLa cells (flow cytometry); format: cell-based; settings: for cellular uptake, course over incubation time: 1 µM peptide, 2, 6 and 24 h, heparin wash, trypsinized, flow cytometry fluorescence, mean of n = 3; for cellular uptake, course over incubation time / cellular uptake compared with Arg peptide: DMEM 10% FBS; for cellular uptake, rank among the peptides containing dAAs / cellular uptake compared with Arg peptide: 1 µM peptide, flow cytometry, n = 3; for cellular uptake, rank among the peptides containing dAAs: 2-24 h; for cellular uptake compared with Arg peptide: 24 h
Method: Cellular uptake of peptides was assessed against HeLa (Fig. 5a) and CHO-K1 cells (Fig. 5b) at a concentration of 1 µM and various incubation times (2, 6, and 24 h). […] Not only stabilities against protease digestion but also other factors might contribute to prolongation of the cell-penetrating ability of peptides. […] The number of Arg residues in Arg-rich peptides is very important for their cell-penetrating ability, and six Arg are not enough. […] Substitution of Arg in Arg peptide with Ac5c, Ac5c^dOM, or (αMe)Leu positively affected its cell-penetrating ability compared with Aib. In comparison, among the peptides containing dAAs, (αMe)Leu peptide was the best for HeLa cell, Ac5c peptide was the best for CHO-K1 cell, and Ac5c^dOM peptide was the worst for both cell types (Fig. 5). Although the best peptides were different depending on cell type, the worst peptide was same for both cell types. […] Taken together, a stable helical structure by introducing dAAs into Arg-rich peptide enhanced their cell-penetrating abilities.
HeLa or CHO-K1 cells were seeded on 24-well culture plates (100,000 cells/well) and incubated in 400 µL of DMEM containing 10% FBS. The medium was then replaced with fresh medium, and a peptide solution was added to each well at a concentration of 1 µM. After each incubation time, the medium was removed and cells were washed with ice-cold PBS with heparin (20 units/mL) and trypsinized. After the addition of medium containing 10% FBS, fluorescence intensity was detected and acquired using an On-chip Flow (On-chip Biotechnologies Co., Ltd, Tokyo, Japan). The results are presented as a mean and standard deviation obtained from 3 samples.

[1] = Circular dichroism, R value of secondary structure; format: physicochemical; settings: CD, peptide 24 µM
Method: The conformations of peptides were analyzed by circular dichroism (CD) in pH 7.3 4-(2-hydroxyethyl)-1-piperazineethanesulfonic acid (HEPES) buffer (Fig. 3a), 40% 2,2,2-trifluoroethanol (TFE)/pH 7.3 HEPES buffer (Fig. 3b), and 75% TFE/pH 7.3 HEPES buffer (Fig. 3c). Negative maxima at 205–209 nm (π → π*) and 222–225 nm (n → π*) were diagnostic of a right-handed (P) helical structure[31]–[33]. The ratio of R (θπ → π*/θn → π*) has been used as a parameter to distinguish an α-helical structure from a 3_10-helical structure (i.e., R ≈ 1: α-helix; R < 0.4: 3_10-helix) (Table S1)[34],[35]. Helical content (helicity) of peptides was estimated from the intensity of θn → π* values. A negative maximum at 195–200 nm (π → π*) and a weak positive maximum at 217 nm (n → π*) were diagnostic of a random coil structure. […] By adding TFE to HEPES buffer, (αMe)Leu peptide formed a complete right-handed (P) helical structure in a mixture of α- and 3_10-helices (R = 0.57 and 0.56 in Figs 3b and […], respectively). The dominant structures of Ac5c and Leu peptides changed by increased the rate of TFE to eventually be α-/3_10-helices (R = 0.52) and 3_10-helix (R = 0.30), respectively (Fig. 3c). […] Cbz-[L-Leu-L-Leu-(S,S)-Ac5c^dOM]3-OMe was reported to form a right-handed (P) helical structure in 50% TFE/H2O[37]. L-Leu might contribute to stabilization of the peptide helical secondary structure as well as (S,S)-Ac5c^dOM. Destabilization of the peptide helical secondary structure by L-Arg might be stronger than stabilization of it by (S,S)-Ac5c^dOM. Taken together with the results of CD spectra (Fig. 3), in which helicity of peptides was estimated from the intensity of θn → π* values, stability in the helicity of the peptides in the current study was as follows: (αMe)Leupeptide>Ac5cpeptide≈Leupeptide>Ac5c^dOMpeptide≈Argpeptide.
Figure 3 CD spectra of peptides in (a) HEPES buffer, (b) 40% TFE/HEPES buffer, and (c) 75% TFE/HEPES buffer. Peptide concentration: 24 µM.
Optical rotation [α]^rtD was measured using a Jasco DIP-370 polarimeter (JASCO, Tokyo, Japan) using a 0.5 dm cell. Infrared (IR) spectra were recorded using a Shimadzu IR Affinity-1 spectrometer (Shimadzu Corporation, Kyoto, Japan) for conventional measurement (KBr). CD spectra were recorded using a Jasco J-720W spectropolarimeter (JASCO) with a 1.0 mm path length cell. ^1H NMR (400 MHz) and ^13C NMR (100 MHz) spectra were determined using a JEOL AL 400 spectrometer (JEOL Ltd, Tokyo, Japan). Fast atom bombardment (FAB)-MS was measured using a JEOL JMS-700N (JEOL). MALDI-TOF-MS spectra were recorded using a Bruker Ultrax spectrometer (Bruker Daltonics, Fermont, CA). Piperidine was purchased from Tokyo Chemical Industry Co., Ltd. (Tokyo, Japan). Fmoc-L-Arg(Pbf)-OH, Fmoc-Gly-OH, Fmoc-L-Leu-OH, and CLEAR-Amide resin were purchased from the Peptide Institute., Inc. (Osaka, Japan). Fmoc-(S)-(αMe)Leu-OH was obtained from Nagase & Co., Ltd. (Kyoto, Japan). Fmoc-Ac5c-OH was purchased from Watanabe Chemical Industries, Ltd. (Hiroshima, Japan). HATU, HBTU, HOAt, and HOBt were from AAPPTec (Louisville, KY). COMU was from Novabiochem (Tokyo, Japan). CF and Dulbecco’s modified Eagle’s medium (DMEM) were obtained from Sigma-Aldrich Co. (St. Louis, MO). diisopropylethylamine (DIPEA) and heparin were purchased from Wako Pure Chemicals Co., Inc. (Osaka, Japan). Diethyl ether was from Kanto Chemical Co., Inc. (Tokyo, Japan). Trifluoroacetic acid (TFA) was obtained from Nacalai Tesque, Co., Inc. (Kyoto, Japan). Hoechst 33342 and a Cell counting kit-8 were purchased from Dojindo Laboratories (Kumamoto, Japan). LysoTracker Red was from Molecular Probes (Eugene, OR).
Table S1. R values (qπ → π*/qn → π*) of synthetic peptides.
R value (qπ → π*/qn → π* )
HEPES 40% TFE/HEPES 75% TFE/HEPES

[2] = pH 7.3 HEPES buffer, R ≈ 1 α-helix, R < 0.4 3_10-helix

Structure (SMILES) | cellular uptake, course over incubation time (HeLa cells) | cellular uptake, rank among the peptides containing dAAs (HeLa cells) | cellular uptake compared with Arg peptide (HeLa cells) | R value (θπ → π*/θn → π*) ([1]; 40% TFE/pH 7.3 HEPES buffer) | R value (θπ → π*/θn → π*) ([1]; 75% TFE/pH 7.3 HEPES buffer) | R value (θπ → π*/θn → π*) [1, 2]
CO[C@H]1CC(NC(=O)[C@H](CCCNC(=N)N)NC(=O)[C@H](CCCNC(=N)N)NC(=O)C2(NC(=O)[C@H](CCCNC(=N)N)NC(=O)[C@H](CCCNC(=N)N)NC(=O)C3(NC(=O)[C@H](CCCNC(=N)N)NC(=O)[C@H](CCCNC(=N)N)NC(=O)CNC(=O)c4ccc5c(c4)C(=O)OC54c5ccc(O)cc5Oc5cc(O)ccc54)C[C@H](OC)[C@@H](OC)C3)C[C@H](OC)[C@@H](OC)C2)(C(N)=O)C[C@@H]1OC [Ac5c^dOM peptide] (5FAM-GRR[X1]RR[X1]RR[X1]-NH2) | increased up to 24 h | the worst | higher than that of Arg peptide | No significant maxima | No significant maxima | No significant maxima
N=C(N)NCCC[C@H](NC(=O)CNC(=O)c1ccc2c(c1)C(=O)OC21c2ccc(O)cc2Oc2cc(O)ccc21)C(=O)N[C@@H](CCCNC(=N)N)C(=O)NC1(C(=O)N[C@@H](CCCNC(=N)N)C(=O)N[C@@H](CCCNC(=N)N)C(=O)NC2(C(=O)N[C@@H](CCCNC(=N)N)C(=O)N[C@@H](CCCNC(=N)N)C(=O)NC3(C(N)=O)CCCC3)CCCC2)CCCC1 [Ac5c peptide] (5FAM-GRR[Ac5c]RR[Ac5c]RR[Ac5c]-NH2) | increased cellular uptake from 2 to 6 h incubations and this was maintained after 24 h incubation | – | higher than that of Arg peptide | 0.61 | 0.52 | No significant maxima
CC(C)C[C@](C)(NC(=O)[C@H](CCCNC(=N)N)NC(=O)[C@H](CCCNC(=N)N)NC(=O)[C@](C)(CC(C)C)NC(=O)[C@H](CCCNC(=N)N)NC(=O)[C@H](CCCNC(=N)N)NC(=O)[C@](C)(CC(C)C)NC(=O)[C@H](CCCNC(=N)N)NC(=O)[C@H](CCCNC(=N)N)NC(=O)CNC(=O)c1ccc2c(c1)C(=O)OC21c2ccc(O)cc2Oc2cc(O)ccc21)C(N)=O [(αMe)Leu peptide] (5FAM-GRR[αMeL]RR[αMeL]RR[αMeL]-NH2) | increased cellular uptake from 2 to 6 h incubations and this was maintained after 24 h incubation | the best | higher than that of Arg peptide | 0.57 | 0.56 | 0.45
